In patent US20260083704A1, “LXR MODULATORS WITH BICYCLIC CORE MOIETY FOR TREATING DYSLIPIDEMIAS” (OrsoBio, Inc., priority 2022, published 2026):
Read-outs that look alike come from different tables or passages of the source.

What was measured:
[1] = target: T1, GST-LXRβ ligand-binding domain (Homo sapiens, UniProt P55055); assay: TR-FRETβ activity assay (NCoA3 coactivator peptide recruitment); format: biochemical; settings: 1 μM 24(S)-25-epoxycholesterol prestimulation
T1 construct: amino acids 156-461; NP009052; made in house; host or cells: E. coli
T1 sequence (P55055 156-460 limits assumed): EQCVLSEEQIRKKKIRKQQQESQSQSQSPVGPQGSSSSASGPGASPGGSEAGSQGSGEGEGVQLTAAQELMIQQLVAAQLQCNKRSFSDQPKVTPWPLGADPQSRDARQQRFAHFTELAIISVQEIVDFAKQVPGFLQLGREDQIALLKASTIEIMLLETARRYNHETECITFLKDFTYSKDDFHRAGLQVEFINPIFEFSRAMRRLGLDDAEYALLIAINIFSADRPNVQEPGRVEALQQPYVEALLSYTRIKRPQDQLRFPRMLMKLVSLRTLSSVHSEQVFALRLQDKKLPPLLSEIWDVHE
Procedure, shortened: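 Inverse-agonist format, with LXR prestimulated by 1 μM 24(S)-25-epoxycholesterol in pH 6.8 Tris/HCl, 240 mM KCl, BSA and Triton. Ten concentrations from 50 μM to 0.002 μM were equilibrated 1 h at 4° C with 76 nM GST-LXRβ LBD and 400 nM biotin-NCoA3 peptide. Peptide recruitment detected by 665/615 nm TR-FRET.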

[2] = target: T2, LXRα (Homo sapiens, UniProt Q13133); assay: LXR Gal4 reporter transient transfection assay (mammalian two-hybrid, HEK293), LXRα; format: cell-based; settings: ligand-binding domain (LBD) of LXRα, HEK293; read-out: LBD-M2H Gal4α
T2 construct: expressed in transfected cells; host or cells: HEK293
T2 sequence (Q13133 155-447): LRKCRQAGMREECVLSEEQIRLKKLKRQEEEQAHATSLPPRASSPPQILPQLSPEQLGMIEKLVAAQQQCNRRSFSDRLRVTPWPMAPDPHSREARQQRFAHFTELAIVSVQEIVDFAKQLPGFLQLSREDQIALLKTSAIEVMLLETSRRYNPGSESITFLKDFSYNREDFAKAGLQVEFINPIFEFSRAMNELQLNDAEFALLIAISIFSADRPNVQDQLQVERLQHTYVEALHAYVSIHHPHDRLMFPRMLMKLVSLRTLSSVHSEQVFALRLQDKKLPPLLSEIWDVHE
Protocol: (§1) LXRα and LXRβ activity status was determined via detection of interaction with coactivator and corepressor proteins in mammalian two-hybrid experiments (M2H). For this, via transient transfection the full length (FL) proteins of LXRα (amino acids 1-447; NP005684; SEQ ID NO:1) or LXRβ-(amino acids 1-461; NP009052; SEQ ID NO:2) or the ligand-binding domains (LBD) of LXRα (amino acids 155-447 SEQ ID NO:3) or LXRβ (amino acids 156-461; SEQ ID NO:4) were expressed from pCMV-AD (Stratagene) as fusions to the transcriptional activation domain of NFkB. As cofactors, domains of either the steroid receptor coactivator 1 (SRC1; amino acids 552-887; SEQ ID NO:5) or of the corepressor NCoR (amino acids 1906-2312; NP006302; SEQ ID NO:6) were expressed as fusions to the DNA binding domain of the yeast transcription factor GAL4 (from pCMV-BD; Stratagene). Interaction was monitored via activation of a coexpressed Firefly Luciferase Reporter gene under control of a promoter containing repetitive GAL4 response elements (vector pFRLuc; Stratagene). Transfection efficiency was controlled via cotransfection of constitutively active pRL-CMV Renilla reniformis luciferase reporter (Promega). HEK293 cells were grown in minimum essential medium (MEM) with 2 mM L-glutamine and Earle's balanced salt solution supplemented with 8.3% fetal bovine serum, 0.1 mM non-essential amino acids, 1 mM sodium pyruvate, at 37° C. in 5% CO2. 3.5×10^4 cells/well were plated in 96-well cell culture plates in growth medium supplemented with 8.3% fetal bovine serum for 16-20 h to ˜90% confluency. For transfection, medium was taken off and LXR and cofactor expressing plasmids as well as the reporter plasmids are added in 30 μL OPTIMEM/well including polyethylene-imine (PEI) as vehicle. Typical amounts of plasmids transfected/well: pCMV-AD-LXR (5 ng), pCMV-BD-cofactor (5 ng), pFR-Luc (100 ng), pRL-CMV (0.5 ng). Compound stocks were prepared in DMSO, prediluted in MEM to a total volume of 120 μL, and added 4 h after addition of the transfection mixture (final vehicle concentration not exceeding 0.2%). Cells were incubated for additional 16 h, lysed for 10 min in 1×Passive Lysis Buffer (Promega) and Firefly and Renilla luciferase activities were measured sequentially in the same cell extract using buffers containing D-luciferine and coelenterazine, respectively. Measurements of luminescence were done in a BMG-luminometer.
(§2) The potencies of Compound 21/3 and its analog, Compound pre-6/3, against LXRα and LXRβ were evaluated in biochemical binding assays, cellular mammalian two-hybrid (M2H) interaction assays evaluating nuclear receptor co-repressor (NCOR) recruitment, and cellular reporter assays evaluating transcriptional activity (Table 5).

[3] = target: T3, LXRβ (Homo sapiens, UniProt P55055); assay: LXR Gal4 reporter transient transfection assay (mammalian two-hybrid, HEK293), LXRβ; format: cell-based; settings: ligand-binding domain (LBD) of LXRβ, HEK293; read-out: LBD-M2H Gal4β
T3 construct: LXRβ (amino acids 156-461); expressed in transfected cells; host or cells: HEK293
T3 sequence (P55055 156-460): T1 sequence (P55055 156-460 limits assumed)
Procedure, shortened: (§3)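 Mammalian two-hybrid read-out of LXR–coactivator (SRC1) or corepressor (NCoR) interaction: firefly luciferase under GAL4 response elements, normalised via Renilla co-transfection. LXRα/β full-length or LBD fusions expressed transiently in HEK293; compounds (final DMSO ≤0.2%) given 4 h after transfection for 16 h before lysis.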

[4] = Pharmacokinetics in mice after single oral dosing (blood/plasma and liver exposure); format: in vivo; settings: 20 mg/kg single oral dose, time point 4 h
Protocol: The pharmacokinetics of the compounds was assessed in mice after single dosing and oral administrations. Blood/plasma and liver exposure was measured via LC-MS.
The study design was as follows: • Animals: C57/bl6/J (Janvier) males • Diet: standard rodent chow • Dose: 20 mg/kg • Animal handling: animals were withdrawn from food at least 12 h before administration • Design: single dose oral administration, n=3 animals per group • Sacrifice: at stated time point (4, 12 or 24 h) after administration • Bioanalytics: LC-MS of liver and blood/plasma samples

[5] = target: T4, LXRα (Homo sapiens, UniProt Q13133); assay: LXR Gal4 reporter transient transfection assay (mammalian two-hybrid, HEK293), LXRα; format: cell-based; set-up: expressed in transfected cells; host or cells: HEK293; settings: full length (FL) LXRα, HEK293; read-out: FL-M2H Gal4α
T4 sequence (Q13133 1-447): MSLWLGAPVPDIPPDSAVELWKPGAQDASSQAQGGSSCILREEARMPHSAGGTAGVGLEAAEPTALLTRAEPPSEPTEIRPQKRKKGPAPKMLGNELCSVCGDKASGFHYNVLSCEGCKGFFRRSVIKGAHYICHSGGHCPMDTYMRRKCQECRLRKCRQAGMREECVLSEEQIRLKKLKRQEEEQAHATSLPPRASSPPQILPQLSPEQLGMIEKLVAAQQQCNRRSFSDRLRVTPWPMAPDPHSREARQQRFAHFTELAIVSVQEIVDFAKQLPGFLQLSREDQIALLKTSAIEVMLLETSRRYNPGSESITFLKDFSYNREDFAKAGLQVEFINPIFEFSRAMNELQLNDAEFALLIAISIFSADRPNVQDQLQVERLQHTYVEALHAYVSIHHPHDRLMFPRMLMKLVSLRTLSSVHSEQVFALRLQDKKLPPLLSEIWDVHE
Protocol: as §1, §2

[6] = target: T5, LXRβ (Homo sapiens, UniProt P55055); assay: LXR Gal4 reporter transient transfection assay (mammalian two-hybrid, HEK293), LXRβ; format: cell-based; set-up: LXRβ (amino acids 156-461); expressed in transfected cells; host or cells: HEK293; settings: full length (FL) LXRβ, HEK293; read-out: FL-M2H Gal4β
T5 sequence (P55055 1-460): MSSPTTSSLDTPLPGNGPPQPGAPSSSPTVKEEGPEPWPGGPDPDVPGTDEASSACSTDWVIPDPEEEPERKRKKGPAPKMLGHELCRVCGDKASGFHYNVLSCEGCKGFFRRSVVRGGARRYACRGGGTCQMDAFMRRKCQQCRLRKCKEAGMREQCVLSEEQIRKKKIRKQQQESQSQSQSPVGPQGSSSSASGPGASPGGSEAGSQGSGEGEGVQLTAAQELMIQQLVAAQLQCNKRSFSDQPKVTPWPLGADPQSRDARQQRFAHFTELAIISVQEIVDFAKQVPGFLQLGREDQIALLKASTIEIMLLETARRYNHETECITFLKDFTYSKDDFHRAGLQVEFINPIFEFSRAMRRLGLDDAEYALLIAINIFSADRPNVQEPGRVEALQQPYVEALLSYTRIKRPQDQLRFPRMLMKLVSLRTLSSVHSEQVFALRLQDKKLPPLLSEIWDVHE
Procedure, shortened: as §3

Row | Compound | EC50 [1] [nM] | EC50 [2] [nM] | EC50 [3] [nM] | blood/plasma exposure [4] | liver exposure [4] | liver/blood ratio [4] | EC50 [5] [nM] | EC50 [6] [nM]
1 | Cc1cccc(S(=O)(=O)n2c(-c3cccc(N4CC(C(=O)O)C4)c3)c(-c3ccsc3C#N)c3cc(F)ccc32)c1 [3/8] | 1000 to 10000 | 100 to 1000 | < 100 | – | – | – | – | –
2 | COc1ccc(S(=O)(=O)n2c(-c3cccs3)c(-c3ccsc3C#N)c3ccccc32)cc1 [20/14] | 100 to 1000 | < 100 | < 100 | – | – | – | – | –
3 | Cc1ccc(S(=O)(=O)n2c(-c3cccc(-c4ccc(CN5CCN(C)CC5)cc4)c3)c(-c3ccsc3C#N)c3cc(F)ccc32)cc1 [Compound 8] | 100 to 1000 | – | – | B (300 nM to ≤1 μM) | D (>3 μM) | B (3 to ≤10) | 100 to 1000 | < 100
4 | N#Cc1sccc1-c1c(-c2cccs2)n(S(=O)(=O)c2ccc(Cl)cc2)c2ccc(O)cc12 [Compound 13] | 100 to 1000 | < 100 | < 100 | – | – | – | – | –
5 | N#Cc1sccc1-c1c(-c2cccs2)n(S(=O)(=O)c2ccc(Cl)cc2)c2ccc(OCC(=O)O)cc12 [Compound 15] | > 10000 | 1000 to 10000 | > 10000 | – | – | – | – | –
6 | O=S(=O)(c1ccc(Cl)cc1)n1c(-c2cccs2)c(-c2ccsc2Cl)c2ccccc21 [Compound 20] | 100 to 1000 | < 100 | < 100 | – | – | – | – | –
7 | N#Cc1sccc1-c1c(-c2cccs2)n(S(=O)(=O)c2ccc(Cl)cc2)c2ccc(C(=O)O)cc12 [Compound 23] | > 10000 | 100 to 1000 | 100 to 1000 | – | – | – | – | –
8 | N#Cc1sccc1-c1c(-c2cncs2)n(S(=O)(=O)c2ccc(Cl)cc2)c2ccccc12 [Compound 25] | 1000 to 10000 | 100 to 1000 | < 100 | – | – | – | – | –
9 | COc1ccc(S(=O)(=O)n2c(-c3ccc(CCC(N)=O)cc3)c(-c3ccsc3C#N)c3ccccc32)cc1 [Compound 28] | 1000 to 10000 | 1000 to 10000 | 100 to 1000 | – | – | – | – | –
10 | Cc1ccc(S(=O)(=O)n2c(-c3cccc(C4CC4C(=O)O)c3)c(-c3ccsc3C#N)c3ccccc32)cc1 (stereo not drawn) [Compound 30] | 100 to 1000 | < 100 | < 100 | – | – | – | – | –
11 | Cc1ccc(S(=O)(=O)n2c(-c3cccc(-c4cccc(C(=O)NS(C)(=O)=O)c4)c3)c(-c3ccsc3C#N)c3ccccc32)cc1 [Compound 32] | 100 to 1000 | 100 to 1000 | 100 to 1000 | – | – | – | – | –
12 | Cc1ccc(S(=O)(=O)n2c(-c3cccc(-c4cnc(C(=O)O)cc4C)c3)c(-c3ccsc3C#N)c3cc(F)ccc32)cc1 [Compound 36] | 1000 to 10000 | – | – | – | – | – | 100 to 1000 | 100 to 1000
13 | Cc1ccc(S(=O)(=O)n2c(-c3cccc(-c4ccc(-c5nnn[nH]5)cc4Cl)c3)c(-c3ccsc3C#N)c3cc(F)ccc32)cc1 [Compound 37] | 100 to 1000 | – | – | – | – | – | < 100 | < 100
14 | N#Cc1cccc(C#N)c1-c1c(-c2cccc(-c3ccc(C(=O)O)cc3Cl)c2)n(S(=O)(=O)c2ccc(C(F)F)cc2)c2cc(F)c(O)cc12 [Compound 44] | 100 to 1000 | – | – | – | – | – | < 100 | < 100
